Data reported in patent US20130123222A1, “Synergistic Anti-Cancer Activity of SR16388 with Anti-Mitotic Drugs” (SRI INTERNATIONAL, INC., priority 2011, published 2013).
Numbered stars: 1 amine (or outer) side, 2 acyl side, 3 side chain; on linkers, the order of the positions; unused ones are H or OH. Bridge positions count the residues as written; N and C are the ends. Square brackets hold non-standard residues; d marks the D form. Peptide text beside a SMILES is read from it. I, II: the chains in the order shown. Actinocin(9to1) = Cc1c2oc3c(C)ccc(C(=O)[*:1])c3nc-2c(C(=O)[*:2])c(N)c1=O; NMeV = CN[C@H](C(=O)O)C(C)C; Sar = CNCC(=O)O

Experiments:
[1] = test system: panel of 48 to 60 cell lines; assay: 5×4 combination screen with SR16388; synergism hit rate by algorithm (Z score); format: cell-based; settings: in combination with SR16388, all 20 (5×4) dose combinations
Method: (§1) SR16388 was synthesized in house.
5) A “combination score” was assigned to each specific combination (Ca1b1x): C=1 if Za1b1x>3*SD and C=0 if Za1b1x≦3*SD score);
6) Hit rate of each combination was calculated by comparing the sum of the combination scores of all 20 (5×4) dose combinations with all cell lines to the total number of data points of that specific combination;
7) Hit rate were ranked from high to low to identify potential synergistic combinations.

[2] = test system: panel of 48 to 60 cell lines; assay: 5×4 combination screen with SR16388, CellTiter-Glo viability; synergy by pattern recognition; settings: in combination with SR16388, 5x4-T1; for no effect (number of cell lines) / synergy (number of cell lines): pattern recognition, of 60 cell lines incl. no data; for % synergy: share of cell lines with data
Method: Cells were treated with compounds alone or in combination for three days and CellTiter-Glo® Luminescent Cell Viability Assay (Promega Corp.) was used as the endpoint to measure cell viability.
Cells were cultured in DMEM with 10% fetal bovine serum and used between passage 2 and passage 20. Cells were harvested on Day-1 (FIG. 1A) and re-supspended to the corresponding seeding density and seeded with Wellmate (ThermoFisher) to 384 plates (BD or GBO).
40 mM Compound stocks in 100% DMSO were made. Master plates were made with Janus (PerkinElmer), then further diluted and added to the cell plates with Matrix Platemate (Thermo) on Day 0.
CellTiter-Glo® Luminescent Cell Viability Assay (Promega Corp.) was used to measure ATP as an indicator of viable cells on Day 3 using Envision (PerkinElmer) and back up reader Analyst HT (MDS) and Gen5 (BioTek).
Single point, 5×4 checkque board platemap was used in the initial screening.
Relative Luminescent Units (RLU) were plotted against corresponding drug concentrations and fitted with standard four parameter sigmoidal curve with custom coded R program or Calcusyn (Biosoft, Cambridge, UK).

[3] = Prior in vivo xenograft study and other safety data
[4] = test system: various cancer cell lines; assay: 11×7 synergism hit rate over all cell lines (by algorism); format: cell-based; settings: when tested with SR16388
Text: as §1
Within the same type of cancer cells, some cell lines have more synergistic hits than others. Melanoma and breast cancer cell lines had the highest hit rate.

[5] = test system: cancer cell lines; assay: Combination cell viability assay, general observations on ratios and confirmed synergy; format: cell-based; settings: in combination with SR16388
Method: Cells were treated with compounds alone or in combination for three days and CellTiter-Glo® Luminescent Cell Viability Assay (Promega Corp.) was used as the endpoint to measure cell viability. […] Cells were harvested on Day-1 (FIG. 1A) and re-supspended to the corresponding seeding density and seeded with Wellmate (ThermoFisher) to 384 plates (BD or GBO). […] Master plates were made with Janus (PerkinElmer), then further diluted and added to the cell plates with Matrix Platemate (Thermo) on Day 0. CellTiter-Glo® Luminescent Cell Viability Assay (Promega Corp.) was used to measure ATP as an indicator of viable cells on Day 3 using Envision (PerkinElmer) and back up reader Analyst HT (MDS) and Gen5 (BioTek). Relative Luminescent Units (RLU) were plotted against corresponding drug concentrations and fitted with standard four parameter sigmoidal curve with custom coded R program or Calcusyn (Biosoft, Cambridge, UK).

Compound: CCc1c2c(nc3ccc(O)cc13)-c1cc3c(c(=O)n1C2)COC(=O)[C@]3(O)CC [SN38]
- % hit/combo [1]: 0.58%
- no effect (number of cell lines) [2]: 45
- synergy (number of cell lines) [2]: 13
- % synergy [2]: 22%

Compound: C[C@@H]1Cc2cc(O)ccc2[C@H]2CC[C@]3(C)/C(=C/COCCN(C)C)CC[C@H]3[C@H]12 [SR16388]
- overlapping toxicities with microtubulin inhibitors [3]: does not have ovelapping toxicities
- tolerability [3]: well tolerated

Compound: Cc1ccc(-c2cc(C(F)(F)F)nn2-c2ccc(S(N)(=O)=O)cc2)cc1 [Celecoxib]
- % hit/combo [1]: 0.67%
- no effect (number of cell lines) [2]: 42
- synergy (number of cell lines) [2]: 0
- % synergy [2]: 0%

Compound: Cc1cn(-c2cc(NC(=O)c3ccc(C)c(Nc4nccc(-c5cccnc5)n4)c3)cc(C(F)(F)F)c2)cn1 [Nilotinib]
- % hit/combo [1]: 0.33%
- no effect (number of cell lines) [2]: 42
- synergy (number of cell lines) [2]: 0
- % synergy [2]: 0%

Compound: Nc1nc(Cl)nc2c1ncn2[C@H]1C[C@H](O)[C@@H](CO)O1 [Cladribine]
- % hit/combo [1]: 0.67%
- no effect (number of cell lines) [2]: 42
- synergy (number of cell lines) [2]: 0
- % synergy [2]: 0%

Compound: O=C(CCCCCCC(=O)Nc1ccccc1)NO [Vorinostat]
- % hit/combo [1]: 0.83%
- no effect (number of cell lines) [2]: 58
- synergy (number of cell lines) [2]: 0
- % synergy [2]: 0%

Compound: S=P(N1CC1)(N1CC1)N1CC1 [Thiotepa]
- % hit/combo [1]: 0.83%
- no effect (number of cell lines) [2]: 42

Compound: Cc1c2oc3c(C)ccc(C(=O)N[C@@H]4C(=O)N[C@H](C(C)C)C(=O)N5CCC[C@H]5C(=O)N(C)CC(=O)N(C)[C@@H](C(C)C)C(=O)O[C@@H]4C)c3nc-2c(C(=O)N[C@@H]2C(=O)N[C@H](C(C)C)C(=O)N3CCC[C@H]3C(=O)N(C)CC(=O)N(C)[C@@H](C(C)C)C(=O)O[C@@H]2C)c(N)c1=O [Actinomycin] (I: T[dV]P[Sar][NMeV] / II: T[dV]P[Sar][NMeV]; ester I:1-I:C, II:1-II:C; linker I:N-II:N via Actinocin(9to1))
- hit rate [4]: 1.89%
- % hit/combo [1]: 1.67%
- no effect (number of cell lines) [2]: 39

Compound: Nc1nc(Cl)nc2c1ncn2[C@@H]1O[C@H](CO)[C@@H](O)[C@@H]1F [Clofarabine]
- % hit/combo [1]: 0.50%
- no effect (number of cell lines) [2]: 58

Compound: CC1=C(/C=C/C(C)=C/C=C/C(C)=C/C(=O)O)C(C)(C)CCC1 [Tretinoin]
- % hit/combo [1]: 0.58%
- no effect (number of cell lines) [2]: 42
- synergy (number of cell lines) [2]: 0
- % synergy [2]: 0%

Compound: O=c1[nH]c(=O)n([C@H]2C[C@H](O)[C@@H](CO)O2)cc1F [Floxuridine]
- % hit/combo [1]: 0.67%
- no effect (number of cell lines) [2]: 42
- synergy (number of cell lines) [2]: 0
- % synergy [2]: 0%

Compound: Cn1nnc2c(C(N)=O)ncn2c1=O [Temozolomide]
- % hit/combo [1]: 0.75%
- no effect (number of cell lines) [2]: 42

Compound: Cc1ccc(NC(=O)c2ccc(CN3CCN(C)CC3)cc2)cc1Nc1nccc(-c2cccnc2)n1 [Imatinib]
- % hit/combo [1]: 0.92%
- no effect (number of cell lines) [2]: 41
- synergy (number of cell lines) [2]: 1
- % synergy [2]: 2%

Compound: Nc1ccn([C@@H]2O[C@H](CO)[C@@H](O)C2(F)F)c(=O)n1 [Gemcitabine]
- % hit/combo [1]: 0.83%
- no effect (number of cell lines) [2]: 58
- synergy (number of cell lines) [2]: 0
- % synergy [2]: 0%

Compound: N#Cc1ccc(C(c2ccc(C#N)cc2)n2cncn2)cc1 [Letrozole]
- % hit/combo [1]: 0.42%
- no effect (number of cell lines) [2]: 42
- synergy (number of cell lines) [2]: 0
- % synergy [2]: 0%

Compound: CO[C@H]1C[C@@H]2CC[C@@H](C)[C@@](O)(O2)C(=O)C(=O)N2CCCC[C@H]2C(=O)O[C@H]([C@H](C)C[C@@H]2CC[C@@H](O)[C@H](OC)C2)CC(=O)[C@H](C)/C=C(\C)[C@@H](O)[C@@H](OC)C(=O)[C@H](C)C[C@H](C)/C=C/C=C/C=C/1C [Rapamycin]
- % hit/combo [1]: 0.83%
- no effect (number of cell lines) [2]: 54

Compound: C/C=C1\NC(=O)[C@H]2CSSCC/C=C/[C@H](CC(=O)N[C@H](C(C)C)C(=O)N2)OC(=O)[C@H](C(C)C)NC1=O [Romidepsin]
- % hit/combo [1]: 0.75%
- no effect (number of cell lines) [2]: 52
- synergy (number of cell lines) [2]: 6
- % synergy [2]: 10%

Compound: CCC1=C[C@@H]2CN(C1)Cc1c([nH]c3ccccc13)[C@@](C(=O)OC)(c1cc3c(cc1OC)N(C)[C@H]1[C@@](O)(C(=O)OC)[C@H](OC(C)=O)[C@]4(CC)C=CCN5CC[C@]31[C@@H]54)C2 [Vinorelbine]
- interaction with SR16388 (confirmed) [5]: synergistic anti-proliferation effect

Compound: CCCCCOC(=O)Nc1nc(=O)n([C@@H]2O[C@H](C)[C@@H](O)[C@H]2O)cc1F [Capecitabine]
- % hit/combo [1]: 1.08%
- no effect (number of cell lines) [2]: 58
- synergy (number of cell lines) [2]: 0
- % synergy [2]: 0%

Compound: Nc1ccn([C@@H]2O[C@H](CO)[C@@H](O)[C@@H]2O)c(=O)n1 [Cytarabine]
- % hit/combo [1]: 0.33%
- no effect (number of cell lines) [2]: 42
- synergy (number of cell lines) [2]: 0
- % synergy [2]: 0%

Compound: COc1nc(N)nc2c1ncn2[C@@H]1O[C@H](CO)[C@@H](O)[C@@H]1O [Nelarabine]
- % hit/combo [1]: 0.33%
- no effect (number of cell lines) [2]: 58
- synergy (number of cell lines) [2]: 0
- % synergy [2]: 0%

Compound: CS(=O)(=O)CCNCc1ccc(-c2ccc3ncnc(Nc4ccc(OCc5cccc(F)c5)c(Cl)c4)c3c2)o1 [Lapatinib]
- % hit/combo [1]: 0.67%
- no effect (number of cell lines) [2]: 55
- synergy (number of cell lines) [2]: 3
- % synergy [2]: 5%

Compound: N.N.O=C([O-])C1(C(=O)[O-])CCC1.[Pt+2] [Carboplatin]
- % hit/combo [1]: 0.83%
- no effect (number of cell lines) [2]: 41
- synergy (number of cell lines) [2]: 1
- % synergy [2]: 2%

Compound: Cc1nc(Nc2ncc(C(=O)Nc3c(C)cccc3Cl)s2)cc(N2CCN(CCO)CC2)n1 [Dasatinib]
- % hit/combo [1]: 1.08%
- no effect (number of cell lines) [2]: 50
- synergy (number of cell lines) [2]: 8
- % synergy [2]: 14%

Compound: CCN(CC)CCNC(=O)c1c(C)[nH]c(/C=C2\C(=O)Nc3ccc(F)cc32)c1C [Sunitinib]
- % hit/combo [1]: 1.25%
- no effect (number of cell lines) [2]: 56

Compound: Nc1nc(F)nc2c1ncn2[C@@H]1O[C@H](CO)[C@@H](O)[C@@H]1O [FluroaraA]
- % hit/combo [1]: 0.67%
- no effect (number of cell lines) [2]: 42
- synergy (number of cell lines) [2]: 0
- % synergy [2]: 0%

Compound: CC/C(=C(\c1ccccc1)c1ccc(OCCN(C)C)cc1)c1ccccc1 [Tamoxifen]
- % hit/combo [1]: 0.83%
- no effect (number of cell lines) [2]: 39
- synergy (number of cell lines) [2]: 3
- % synergy [2]: 7%

Compound: CO[C@H]1C[C@@H]2CC[C@@H](C)[C@@](O)(O2)C(=O)C(=O)N2CCCC[C@H]2C(=O)O[C@H]([C@H](C)C[C@@H]2CC[C@@H](OCCO)[C@H](OC)C2)CC(=O)[C@H](C)/C=C(\C)[C@@H](O)[C@@H](OC)C(=O)[C@H](C)C[C@H](C)/C=C/C=C/C=C/1C [Everolimus]
- % hit/combo [1]: 0.42%
- no effect (number of cell lines) [2]: 58
- synergy (number of cell lines) [2]: 0
- % synergy [2]: 0%
